{"source": "patent US6713506B2", "about": "“Tea polyphenol esters and analogs thereof for cancer prevention and treatment” (University of South Florida, priority 2000, dated 2004)", "key": {"[1]": {"biological_target": "T1, proteasomal PGPH activity in Jurkat T cell extract (Homo sapiens, UniProt P28072)", "T1 construct": "endogenous in cells; host or cells: Jurkat T cell whole cell extract", "experiment": "Proteasome PGPH activity in Jurkat T cell free extract", "format": "biochemical", "conditions": "EGCG 10 μM", "method": "Inhibition of the proteasome activity with cell free extracts by tea polyphenols—The whole cell extract (3.5 μg) from Jurkat T cells is incubated for 90 min at 37° C. with 20 μM of a fluorogenic peptide substrate, Suc-Leu-Leu-Val-Tyr-AMC (for the chymotrypsin-like activity), Z-Leu-Leu-Glu-AMC [peptidyl-glutamyl peptide-hydrolyzing (PGPH) activity; Calbiochem], and Z-Gly-Gly-Arg-AMC (for the trypsin-like activity; Bachem), in 100 μl of the assay buffer with or without 10 μM EGCG or EGC. The hydrolyzed AMCs are quantified as described above."}, "[2]": {"tested_on": "normal human WI-38 cells", "experiment": "Cell cycle analysis by flow cytometry, WI-38 cells", "format": "cell-based", "conditions": "WI-38, 10 μM", "method": "(§1) FIG. 6. Cell cycle analysis. Asynchronous Jurkat, LNCaP, WI-38, and VA-13 cells are treated with 10 μM EGCG and harvested at the time points indicated. Cells are prepared and analyzed by flow cytometry as described in the The Materials and Methods section of Example 1. Growth arrest is determined by the increase in the percentage of G1 population.\n(§2) Cell cycle analysis—Cell cycle analysis based on DNA content is performed as follows. Cells are harvested, counted and washed twice with PBS. Cells (5×10^6 ) are then suspended in 0.5 ml PBS, pipetted and fixed in 5 ml of 70% ethanol for at least 2 h at −20° C. Cells are centrifuged, resuspended in 1 ml of propidium iodide staining solution (50 μg propidium iodide, 100 units RNase A and 1 mg glucose per ml PBS) and incubated at room temperature for 30 min. The cells are then analyzed with FACScan (Becton Dickinson Immunocytometry, CA.), ModFit LT and WinMDI V.2.8 cell cycle analysis software (Verity Software, Topsham, Me.). The cell cycle distribution is shown as the percentage of cells containing G1, S, G2, and M DNA judged by propidium iodide staining."}, "[3]": {"tested_on": "p27 and IκB-α in LNCaP cells", "experiment": "Western blot of proteasome substrates in LNCaP cells", "format": "cell-based, human", "conditions": "1 or 10 μM, 12 h", "method": "FIG. 5. Western blot analysis. A, Jurkat T cells are treated with 1 or 10 μM of EGCG or EGC for 12 h, or B, C, 25 μM of EGCG for various times, followed by Western blot assay using specific antibodies to p27, IκB-α, ubiquitin or actin, as indicated. MWs of IκB-α and actin are 40 and 43 kDa, respectively. The band of 56 kDa, indicated by an arrow in (B), is an ubiquitinated or phosphorylated form of IκB-α. The bands indicated in (C) are ubiquitin-containing proteins. D, LNCaP cells are treated with 1 or 10 μM of EGCG for 12 h. Western bot is performed as described above. E, F, Jurkat T cells are pretreated with 10 μg/ml cycloheximide for 2 hr, followed by co-incubation with 1 or 10 μM of EGCG for 8 or 12 hr as indicated. The p70 is a putative ubiquitinated p27-containing complex (An et al., 1998, Cell Death Differ 5: 1062-75).\nWestern blot analysis—Western blot assay is performed as described previously (An et al., (1998) Cell Death Differ 5(12), 1062-75) using specific antibodies to p27^Kip (monoclonal; Pharmingen), IκB-α (polyclonal; Santa Cruz), ubiquitin (polyclonal; Sigma) or actin (polyclonal; Santa Cruz). In brief, Jurkat T or LNCaP cells are treated with EGCG or EGC in dose-response or time-dependent manner. Cells are harvested and lysated using the whole lysis buffer. […] Immunocomplexes are detected using the ECL detection reagents kit (Amersham, Piscataway, N.J.)."}, "[4]": {"tested_on": "LNCaP prostate cancer cells", "experiment": "Cell cycle analysis by flow cytometry, LNCaP cells", "format": "cell-based, human", "conditions": "10 μM, 36 h", "method": "as §1, §2"}, "[5]": {"tested_on": "SV-40-transformed WI-38 cells (VA-13)", "experiment": "Cell cycle analysis by flow cytometry, VA-13 cells", "format": "cell-based, human", "conditions": "VA-13, 10 μM", "method": "as §1, §2"}, "[6]": {"biological_target": "T2, chymotrypsin-like activity in living prostate (PC-3) cancer cells (Homo sapiens, UniProt P28074)", "T2 construct": "endogenous in cells; host or cells: PC-3 cells (intact)", "experiment": "Proteasome chymotrypsin-like activity in living PC-3 cells", "format": "cell-based", "method": "(§3) Inhibition of the proteasome activity in living cells by tea polyphenols—To measure inhibition of the chymotrypsin-like activity in living tumor cells, Jurkat T (1×10^5 cells/ml/well), MCF7 or PC-3 cells (1×10^4 cells/ml/well) are cultured in 24-well plates. These cells are first incubated for 12 h with various concentrations of EGCG, EGC, β-lactone or LLnL, followed by an additional 2 h-incubation with fluorogenic peptide substrates, Suc-Leu-Leu-Val-Tyr-AMC for the chymotrypsin-like activity and Z-Gly-Gly-Arg-AMC for the trypsin-like activity. After that, cell medium (200 μl per sample) is collected and used for measurement of free AMCs.\n(b) The peptide substrate for the proteasomal chymotrypsin-like activity, Suc-Leu-Leu-Val-Tyr-AMC, is used to measure the proteasome activity in intact Jurkat, MCF-7 and PC-3 cells, which is inhibitable by co-incubation with EGCG (FIG. 16C). A similar assay is performed to measure potency and selectivity of EGCG (vs. EGC) or ECG (vs. EC) in the selected cell lines. […] After that, medium is collected and the liberated AMCs in the medium are measured by fluorometer to measure in vivo potency and selectivity of tea polyphenols."}, "[7]": {"biological_target": "T3, trypsin-like activity in living Jurkat T cells (Homo sapiens, UniProt Q99436)", "T3 construct": "endogenous in cells; host or cells: Jurkat T cells (whole cell extract or intact cells)", "experiment": "Proteasome trypsin-like activity in living Jurkat T cells", "format": "cell-based", "method": "as §3"}}, "note": "“Also recorded” adds a separate entry of the source."}
{"smiles": "O=C(O[C@@H]1Cc2c(O)cc(O)cc2O[C@@H]1c1cc(O)c(O)c(O)c1)c1cc(O)c(O)c(O)c1", "note": "[EGCG, (−)-epigallocatechin-3-gallate]", "values": [{"measurement": "inhibition of proteasomal PGPH activity (in words)", "setting": "[1]", "result": "potently inhibits"}, {"measurement": "decrease in G1 population", "setting": "[2]; 12 h", "result": 22, "unit": "%"}, {"measurement": "increase in G2/M population", "setting": "[2]; 12 h", "result": 6, "unit": "%"}, {"measurement": "increase in S population", "setting": "[2]; 12 h", "result": 16, "unit": "%"}, {"measurement": "increase in G1 population", "setting": "[2]; 36 h", "result": 22, "unit": "%"}, {"measurement": "p27 and IκB protein expression", "setting": "[3]", "result": "accumulated"}, {"measurement": "increase in G1 population", "setting": "[4]", "result": "~25", "unit": "%"}, {"measurement": "increase in G1 population", "setting": "[5]; 12 h", "result": 21, "unit": "%"}, {"measurement": "increase in G1 population", "setting": "[5]; 36 h", "result": 33, "unit": "%"}, {"measurement": "inhibition of chymotrypsin-like activity in living PC-3 cells (in words)", "setting": "[6]", "result": "inhibitable; also recorded: inhibits"}, {"measurement": "inhibition of trypsin-like activity in living Jurkat T cells (in words)", "setting": "[7]", "result": "does not significantly inhibit"}]}
